The record followed here is PubChem BioAssay (NCI).

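1) Cells in 96-well plates. 2) Compound, 48 h, 5 concentrations. 3) Linear interpolation between surrounding doses. 4) Unreached endpoint = highest concentration. Here, GI50 denotes the concentration required for 50% inhibition of growth. The concentration for full growth arrest is given as TGI.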 Bounds are passed on as bounds.

Among the test systems are SK-MEL-5 melanoma; MCF7 breast; HL-60(TB) leukemia; NCI-H226 lung; MDA-MB-231 breast; MOLT-4 leukemia; ACHN renal; UACC-62 melanoma; HCC-2998 colon; OVCAR-3 ovarian.
Holding throughout (experiment): growth of human tumour cells (NCI), 48 h

Take `COP(=O)(/C=C/C(NC(=O)C(Cl)(Cl)Cl)c1ccccc1)OC` (stereo not given): the TGI in the test on SK-MEL-5 melanoma, with MCF7 breast, in the test with HL-60(TB) leukemia, in the test on NCI-H226 lung, with MDA-MB-231 breast and in the test with MOLT-4 leukemia was over 100 µM in each case. Further, the TGI in the test with ACHN renal, in the test on UACC-62 melanoma, in the test on HCC-2998 colon and in the test on OVCAR-3 ovarian was over 100 µM each time.
Regarding `C=CC(=C)CCC(Br)C(C)(C)Br` (stereo not given), the TGI with SK-MEL-5 melanoma is over 100 µM; in the test on MCF7 breast, over 100 µM; in the test on HL-60(TB) leukemia it was 55.1 µM; in the test with NCI-H226 lung, over 100 µM; in the test on MDA-MB-231 breast it was over 100 µM; in the test with MOLT-4 leukemia it was 45.7 µM. For the same compound, the TGI in the test with ACHN renal, with UACC-62 melanoma, in the test on HCC-2998 colon and with OVCAR-3 ovarian was over 100 µM in each case.
As for `COc1ccc(CC2Cc3ccccc3CC(=O)N2)cc1OC` (stereo not given), the TGI with SK-MEL-5 melanoma was 54.1 µM; in the test with MCF7 breast it was over 100 µM; in the test with HL-60(TB) leukemia, over 100 µM; in the test with NCI-H226 lung, over 100 µM; in the test on MDA-MB-231 breast, over 100 µM; in the test with MOLT-4 leukemia it was 65 µM. For the same compound, the TGI in the test with ACHN renal, with UACC-62 melanoma, in the test on HCC-2998 colon and in the test on OVCAR-3 ovarian was over 100 µM each time.
As for `Cc1nc(-c2cccnc2)sc1C(=O)CC(=O)C(=O)Nc1cccc(NC(=O)C(=O)CC(=O)c2sc(-c3cccnc3)nc2C)n1`, the TGI in the test on SK-MEL-5 melanoma, in the test on MCF7 breast, in the test with HL-60(TB) leukemia, in the test on NCI-H226 lung, with MDA-MB-231 breast and in the test on MOLT-4 leukemia was over 100 µM in each case. The TGI in the test on ACHN renal, in the test with UACC-62 melanoma, in the test on HCC-2998 colon and in the test with OVCAR-3 ovarian was over 100 µM throughout.
In the case of `CC12CP(=O)(O)CC1C2(Cl)Cl` (stereo not given), the TGI in the test on SK-MEL-5 melanoma, in the test with MCF7 breast, with HL-60(TB) leukemia, with NCI-H226 lung, in the test with MDA-MB-231 breast and in the test on MOLT-4 leukemia was over 100 µM throughout. Further, the TGI with ACHN renal, in the test on UACC-62 melanoma, in the test on HCC-2998 colon and with OVCAR-3 ovarian was over 100 µM in each case.
As to `CCOc1cc2c(cc1O)C=C[C@@H]1[C@@H]2CC[C@]2(C)[C@@H](O)CC[C@@H]12`, the TGI in the test on SK-MEL-5 melanoma is 23.6 µM; with MCF7 breast it was over 75.8 µM; in the test on HL-60(TB) leukemia, 7.58 µM; in the test on NCI-H226 lung, 56.9 µM; in the test on MDA-MB-231 breast, 28.9 µM; in the test on MOLT-4 leukemia, 73.1 µM. The TGI in the test on ACHN renal was over 100 µM; with UACC-62 melanoma, over 43.1 µM; in the test with HCC-2998 colon, 18.7 µM; with OVCAR-3 ovarian, 6.74 µM.
Turning to `O=C(N/N=C\c1ccc(N(CCCl)CCCl)cc1)c1cccnc1`, the GI50 in the test with SK-MEL-5 melanoma is 36.3 µM; in the test on MCF7 breast, 20.9 µM; in the test on HL-60(TB) leukemia, 3.39 µM; with NCI-H226 lung, 2.13 µM; in the test on MDA-MB-231 breast, 24.8 µM; in the test on MOLT-4 leukemia, 6.95 µM. The GI50 with ACHN renal was 31.6 µM; with UACC-62 melanoma, 9.1 µM; with HCC-2998 colon, 55.5 µM; in the test on OVCAR-3 ovarian, 30.5 µM. Also, the TGI is over 100 µM in the test with SK-MEL-5 melanoma; over 100 µM with MCF7 breast; 46.9 µM in the test with HL-60(TB) leukemia; 11.4 µM in the test on NCI-H226 lung; over 100 µM in the test with MDA-MB-231 breast; over 100 µM with MOLT-4 leukemia. Also, the TGI in the test on ACHN renal, in the test with UACC-62 melanoma, with HCC-2998 colon and in the test on OVCAR-3 ovarian was over 100 µM each time.
For `CCOC(=O)c1ccc(NCc2ccc3nc(OC)c(OC)nc3c2)cc1`, the TGI with SK-MEL-5 melanoma, in the test on MCF7 breast, in the test with HL-60(TB) leukemia, with NCI-H226 lung, in the test with MDA-MB-231 breast and in the test on MOLT-4 leukemia was over 100 µM each time. For the same compound, the TGI in the test with ACHN renal, in the test with UACC-62 melanoma, with HCC-2998 colon and with OVCAR-3 ovarian was over 100 µM each time.
For the compound `CN1/C(=C\N=O)C(C)(C)N(O)C1(C)C`, the TGI in the test with SK-MEL-5 melanoma, in the test with MCF7 breast, in the test with HL-60(TB) leukemia, in the test on NCI-H226 lung, in the test with MDA-MB-231 breast and in the test with MOLT-4 leukemia was over 100 µM each time. The TGI with ACHN renal, in the test with UACC-62 melanoma, with HCC-2998 colon and with OVCAR-3 ovarian was over 100 µM in each case.
Consider `C=C(C)[C@@]12C[C@H](OC(=O)[C@H](O)[C@@H](NC(=O)c3ccccc3)c3ccccc3)C(C)=C1[C@@H](OC(C)=O)C(=O)[C@@]1(C)C([C@@H]2OC(=O)c2cc(F)cc(F)c2)C2(OC(C)=O)CO[C@@H]2C[C@@H]1O` (stereo not given in full), for which the TGI with SK-MEL-5 melanoma is over 10 µM; in the test on MCF7 breast it was over 10 µM; with HL-60(TB) leukemia, 0.224 µM; in the test with NCI-H226 lung, over 10 µM; with MDA-MB-231 breast, 2.22 µM; with MOLT-4 leukemia, 1.24 µM. For the same compound, the TGI with ACHN renal was over 9.36 µM; in the test with UACC-62 melanoma it was 3.26 µM; with HCC-2998 colon it was 2.16 µM; in the test with OVCAR-3 ovarian, 1.92 µM.
Regarding `Cc1cn(CC2(CO)CCC2)c(=O)[nH]c1=O`, the TGI in the test with SK-MEL-5 melanoma, in the test on MCF7 breast, in the test with HL-60(TB) leukemia, in the test on NCI-H226 lung, with MDA-MB-231 breast and in the test with MOLT-4 leukemia was over 100 µM each time. Besides, the TGI in the test with ACHN renal, in the test with UACC-62 melanoma, in the test on HCC-2998 colon and in the test with OVCAR-3 ovarian was over 100 µM in each case.
For `O=C1NCN(c2ccccc2)C12CCN(CCCN1CCN(CCOC(c3ccccc3)c3ccccc3)CC1)CC2`, the TGI in the test with SK-MEL-5 melanoma stood at 2.35 µM; in the test with MCF7 breast, 6.23 µM; in the test with HL-60(TB) leukemia, 4.31 µM; in the test on NCI-H226 lung, 7.35 µM; in the test with MDA-MB-231 breast it was 7.25 µM; in the test on MOLT-4 leukemia, 6.4 µM. The TGI in the test on ACHN renal was found to be 5.88 µM; in the test with UACC-62 melanoma, 7.69 µM; in the test with HCC-2998 colon it was 1.02 µM; with OVCAR-3 ovarian it was 6.93 µM.
Turning to `NC1=Nc2ccccc2Sc2nccn21`, the TGI is 33.6 µM in the test on SK-MEL-5 melanoma; over 100 µM in the test with MCF7 breast; 45 µM in the test with HL-60(TB) leukemia; 48.1 µM with NCI-H226 lung; 35.9 µM in the test with MDA-MB-231 breast; 49.4 µM with MOLT-4 leukemia. Further, the TGI was 91 µM in the test on ACHN renal, over 100 µM with UACC-62 melanoma, 43 µM with HCC-2998 colon and 66 µM with OVCAR-3 ovarian.
Regarding `CC(C)(C)c1ccc(NS(=O)(=O)c2ccc(N)cc2)cc1`, the TGI came out at 32.5 µM in the test on SK-MEL-5 melanoma; 39 µM in the test on MCF7 breast; 38.1 µM in the test with HL-60(TB) leukemia; 45.8 µM in the test with NCI-H226 lung; 68.1 µM with MDA-MB-231 breast; 34.5 µM with MOLT-4 leukemia. In addition, the TGI in the test on ACHN renal amounted to 83.6 µM; in the test with UACC-62 melanoma, 30.3 µM; in the test on HCC-2998 colon it was 39.5 µM; with OVCAR-3 ovarian it was 12.9 µM.
On to `Cc1cc(-c2nc3ccc(F)cc3s2)ccc1NC(=O)C(N)CCCCN` (stereo not given), for which the TGI with SK-MEL-5 melanoma was determined as 20.4 µM; with MCF7 breast it was 4.46 µM; in the test with HL-60(TB) leukemia it was 9.78 µM; with NCI-H226 lung it was 24 µM; with MDA-MB-231 breast, 23.1 µM; with MOLT-4 leukemia, 7.94 µM. For the same compound, the TGI came out at 25.6 µM in the test with ACHN renal, 24.6 µM in the test with UACC-62 melanoma, 21.4 µM in the test with HCC-2998 colon and 22.4 µM with OVCAR-3 ovarian.
On to `COc1ccc2nc(N/N=C/c3ccc(C)s3)cc(C)c2c1`, for which the TGI in the test on SK-MEL-5 melanoma was 30.5 µM; in the test with MCF7 breast it was 37.5 µM; in the test with HL-60(TB) leukemia, over 100 µM; in the test with NCI-H226 lung, 41 µM; in the test on MDA-MB-231 breast, 43.9 µM; in the test on MOLT-4 leukemia it was 35.5 µM. Besides, the TGI in the test on ACHN renal was 37.8 µM; in the test with UACC-62 melanoma it was 35.4 µM; with HCC-2998 colon it was 33.5 µM; in the test on OVCAR-3 ovarian it was 38.1 µM.
For `CC(=O)OC(OC(C)=O)c1c2ccccc2cc2ccccc12`, the TGI in the test with SK-MEL-5 melanoma was 25.8 µM; in the test with MCF7 breast it was 40.7 µM; with HL-60(TB) leukemia, over 100 µM; in the test on NCI-H226 lung it was 37.7 µM; in the test with MDA-MB-231 breast, 40.1 µM; in the test on MOLT-4 leukemia it was 16.9 µM. Further, the TGI with ACHN renal was 61.4 µM; with UACC-62 melanoma it was 41.7 µM; with HCC-2998 colon, 40.5 µM; in the test with OVCAR-3 ovarian, 67.3 µM.
`C/C(CC(O)(C(F)(F)F)C(F)(F)F)=N\NC(N)=S`: the TGI in the test with SK-MEL-5 melanoma, with MCF7 breast, with HL-60(TB) leukemia, with NCI-H226 lung, with MDA-MB-231 breast and in the test on MOLT-4 leukemia was over 10 µM each time. Also, the TGI in the test with ACHN renal, in the test with UACC-62 melanoma, in the test with HCC-2998 colon and in the test on OVCAR-3 ovarian was over 10 µM each time.
For `CC(C)CC(C#CCCOC(=O)c1ccccc1)OC(=O)c1ccccc1` (stereo not given), the TGI in the test with SK-MEL-5 melanoma, in the test on MCF7 breast, with HL-60(TB) leukemia, with NCI-H226 lung, in the test with MDA-MB-231 breast and with MOLT-4 leukemia was over 10 µM in each case. For the same compound, the TGI in the test with ACHN renal, with UACC-62 melanoma, in the test on HCC-2998 colon and with OVCAR-3 ovarian was over 10 µM each time.
On to `CC1(C)C(CBr)=[N+]([O-])C(C)(C)N1O`, for which the TGI was over 10 µM in the test with SK-MEL-5 melanoma; over 10 µM in the test with MCF7 breast; over 6.81 µM with HL-60(TB) leukemia; over 10 µM in the test on NCI-H226 lung; over 10 µM in the test on MDA-MB-231 breast; over 7.43 µM in the test with MOLT-4 leukemia. Besides, the TGI in the test on ACHN renal is over 8.86 µM; in the test with UACC-62 melanoma, over 10 µM; with HCC-2998 colon, over 10 µM; with OVCAR-3 ovarian, over 6.74 µM.
Take `COc1ccc(/C(=N/OCCCC(=O)O)c2cccs2)cc1`: the TGI in the test with SK-MEL-5 melanoma, in the test with MCF7 breast, with HL-60(TB) leukemia, in the test with NCI-H226 lung, with MDA-MB-231 breast and in the test with MOLT-4 leukemia was over 100 µM throughout. The TGI with ACHN renal, in the test with UACC-62 melanoma, in the test with HCC-2998 colon and in the test with OVCAR-3 ovarian was over 100 µM throughout.
